System: moderate-to-severe chronic spontaneous urticaria (CSU)
Assay: Phase 2 CSU study: urticaria activity score over 7 days (UAS7)
Type: in vivo, human
Parameters: key to UAS7 Median / UAS7 Change from baseline Median / UAS7 change from baseline, Q1 / UAS7 change from baseline, Q3 / UAS7 change from baseline, Max / UAS7 Change from baseline LS Mean (SE): UAS7 points; daily UAS score ranges 0–6 points/day, over 7 days
From the text: The study comprises a 12 week, randomized, double-blind, placebo-controlled, multi-center, dose-ranging efficacy and safety phase, followed by a 40 week open label extension (OLE) phase (see FIG. 1). The study consists of three phases and an optional OLE phase. […] Clinically, CSU is characterized by the spontaneous and recurrent appearance of pruritic hives. The proposed primary endpoints were the UAS7 at Week 12 in EU and EU reference countries and the ISS7 in the US. Regardless of where a participant was from, all assessments were the same. The UAS7 score is a composite score containing both the HSS7 and the ISS7. This allowed a global assessment of the two key components of urticaria: hives and itch. […] The UAS is a validated PRO measure. […] The daily UAS scores range from 0 to 6 point/day. […] Patients were to complete the UAS using the e-diary. […] The following secondary endpoints were to be analyzed using the same approach as for the primary endpoint: • Change from baseline in UAS7 at Week 4 • Change from baseline in UAS7 at Week 12 (for US and US reference countries) • Change from baseline in ISS7 at Week 12 (except US and US reference countries) • Change from baseline in HSS7 at Week 12 The following responder secondary endpoints were to be analyzed using the Cochran-Mantel-Haenszel test adjusted by region: • Proportion of participants with UAS7<6 at Week 12 • Proportion of participants with UAS7=0 at Week 12 Participants who received selected prohibited medications and/or rescue medications were to be considered as non-responders for time points after the medication usage. For other participants, all available data including those collected during the off-treatment period were to be used to determine the responder/non-responder status. Missing data were to be considered as non-responders.

[1] = Week 11, 400 mg TID, Prior Omalizumab Use
[2] = Week 11, 400 mg TID, omalizumab-naive participants
[3] = Week 12, 400 mg BID, ITT population
[4] = Week 12, 400 mg BID, Omalizumab-Naïve
[5] = Week 12, 400 mg BID, Prior Omalizumab Use
[6] = Week 12, 400 mg BID, omalizumab-naive participants
[7] = Week 12, 400 mg QPM, ITT population
[8] = Week 12, 400 mg QPM, Omalizumab-Naïve
[9] = Week 12, 400 mg QPM, Prior Omalizumab Use
[10] = Week 12, 400 mg QPM, omalizumab-naive participants
[11] = Week 12, 400 mg TID, ITT population
[12] = Week 12, 400 mg TID, Omalizumab-Naïve
[13] = Week 12, 400 mg TID, Prior Omalizumab Use
[14] = Week 12, 400 mg TID, omalizumab-naive participants

CC(C)(C=C(C#N)C(=O)N1CCC[C@@H](n2nc(-c3ccc(Oc4ccccc4)cc3F)c3c(N)ncnc32)C1)N1CCN(C2COC2)CC1 [rilzabrutinib, (R)-2-[3-[4-amino-3-(2-fluoro-4-phenoxy-phenyl)pyrazolo[3,4-d]pyrimidin-1-yl]piperidine-1-carbonyl]-4-methyl-4-[4-(oxetan-3-yl)piperazin-1-yl]pent-2-enenitrile]
UAS7 Change from baseline Mean (SD) [1]: −25.94 (15.41) | UAS7 Change from baseline Median [1]: −26.33 | UAS7 Mean (SD) [1]: 7.08 (11.77) | UAS7 Median [1]: 1.75 | UAS7 Percent change from baseline Mean (SD) [1]: −76.09 (31.89) % | UAS7 Percent change from baseline Median [1]: −92.11% | Non-responder, UAS7 reduction from baseline of 10 points or more [2]: 12 (34.3) n (%) | OR for rilzabrutinib vs. placebo, UAS7 reduction of 10 points or more [2]: 1.839 | RRD (%) for rilzabrutinib vs. placebo, UAS7 reduction of 10 points or more [2]: 13.6 % | Responder, UAS7 reduction from baseline of 10 points or more [2]: 23 (65.7) n (%) | Non-responder, UAS7 reduction from baseline of 10 points or more [3]: 23 (56.1) n (%) | OR for rilzabrutinib vs. placebo, UAS7 reduction of 10 points or more [3]: 1.041 | RRD (%) for rilzabrutinib vs. placebo, UAS7 reduction of 10 points or more [3]: 1.0 % | Responder, UAS7 reduction from baseline of 10 points or more [3]: 18 (43.9) n (%) | UAS7 Change from baseline Mean (SD) [4]: −14.49 (12.08) | UAS7 Change from baseline Median [4]: −12.80 | UAS7 Mean (SD) [4]: 15.61 (13.91) | UAS7 Median [4]: 14.00 | UAS7 Percent change from baseline Mean (SD) [4]: −50.20 (37.89) % | UAS7 Percent change from baseline Median [4]: −47.76% | UAS7 Change from baseline Mean (SD) [5]: −26.00 (18.38) | UAS7 Change from baseline Median [5]: −31.00 | UAS7 Mean (SD) [5]: 8.75 (17.50) | UAS7 Median [5]: 0.00 | UAS7 Percent change from baseline Mean (SD) [5]: −75.00 (50.00) % | UAS7 Percent change from baseline Median [5]: −100.00% | Non-responder, UAS7 reduction from baseline of 10 points or more [6]: 20 (57.1) n (%) | OR for rilzabrutinib vs. placebo, UAS7 reduction of 10 points or more [6]: 1.069 | RRD (%) for rilzabrutinib vs. placebo, UAS7 reduction of 10 points or more [6]: 1.7 % | Responder, UAS7 reduction from baseline of 10 points or more [6]: 15 (42.9) n (%) | Non-responder, UAS7 reduction from baseline of 10 points or more [7]: 24 (63.2) n (%) | OR for rilzabrutinib vs. placebo, UAS7 reduction of 10 points or more [7]: 0.841 | RRD (%) for rilzabrutinib vs. placebo, UAS7 reduction of 10 points or more [7]: −4.0 % | Responder, UAS7 reduction from baseline of 10 points or more [7]: 14 (36.8) n (%) | UAS7 Change from baseline Mean (SD) [8]: −10.57 (9.36) | UAS7 Change from baseline Median [8]: −8.70 | UAS7 Median [8]: 22.87 | UAS7 Percent change from baseline Mean (SD) [8]: −33.23 (28.33) % | UAS7 Percent change from baseline Median [8]: −29.67% | UAS7 Change from baseline Mean (SD) [9]: −25.00 (NC) | UAS7 Change from baseline Median [9]: −25.00 | UAS7 Mean (SD) [9]: 16.00 (NC) | UAS7 Median [9]: 16.00 | UAS7 Percent change from baseline Mean (SD) [9]: −60.98 (NC) % | UAS7 Percent change from baseline Median [9]: −60.98% | Non-responder, UAS7 reduction from baseline of 10 points or more [10]: 24 (64.9) n (%) | OR for rilzabrutinib vs. placebo, UAS7 reduction of 10 points or more [10]: 0.780 | RRD (%) for rilzabrutinib vs. placebo, UAS7 reduction of 10 points or more [10]: −5.8 % | Responder, UAS7 reduction from baseline of 10 points or more [10]: 13 (35.1) n (%) | Non-responder, UAS7 reduction from baseline of 10 points or more [11]: 18 (43.9) n (%) | OR for rilzabrutinib vs. placebo, UAS7 reduction of 10 points or more [11]: 1.638 | RRD (%) for rilzabrutinib vs. placebo, UAS7 reduction of 10 points or more [11]: 11.7 % | Responder, UAS7 reduction from baseline of 10 points or more [11]: 23 (56.1) n (%) | UAS7 Change from baseline Mean (SD) [12]: −19.04 (11.40) | UAS7 Change from baseline Median [12]: −18.92 | UAS7 Mean (SD) [12]: 11.00 (9.90) | UAS7 Percent change from baseline Mean (SD) [12]: −62.32 (31.89) % | UAS7 Percent change from baseline Median [12]: −60.00% | UAS7 Change from baseline Mean (SD) [13]: −27.40 (16.76) | UAS7 Change from baseline Median [13]: −34.00 | UAS7 Mean (SD) [13]: 7.80 (13.01) | UAS7 Median [13]: 0.00 | UAS7 Percent change from baseline Mean (SD) [13]: −74.46 (35.38) % | UAS7 Percent change from baseline Median [13]: −100.00% | Non-responder, UAS7 reduction from baseline of 10 points or more [14]: 15 (42.9) n (%) | OR for rilzabrutinib vs. placebo, UAS7 reduction of 10 points or more [14]: 1.805 | Responder, UAS7 reduction from baseline of 10 points or more [14]: 20 (57.1) n (%)
